From PMC12169680, “Design and Mechanistic Analysis of a Potent Bivalent Inhibitor of Transthyretin Amyloid Fibrillogenesis” (Journal of Medicinal Chemistry, 2025)

How the values were obtained:
[1] = molecular target: T1, V122I TTR (Homo sapiens, UniProt P02766, V142I); experiment: Inhibition of mechano-enzymatic fibrillogenesis (ThT); type: biochemical; details: for antifibrillogenic activity, in words: V122I TTR
T1 construct: 1-127; His6 (N); TEV cleavage site (N); made in house; host or cells: E. coli BL21 (DE3)
Description: To test their potency as inhibitors of TTR fibril formation, the 15 ligands were evaluated for their ability to inhibit the mechano-enzymatic mechanism of fibrillogenesis of V122I TTR, which is one of the most common amyloidogenic variants, , causing a disease with severity intermediate between the wild-type and other rare, more aggressive types of amyloidosis. […] Biochemical activity of ligands together with their physicochemical properties (i.e., cLogD, TPSA) were taken into consideration and B26 was finally selected as the most promising lead for further studies (Figure A). […] Prototype mds84 was also included for comparison. […] Although higher molar ratios of the monovalent ligands did inhibit fibrillogenesis, this cannot be replicated in vivo because the negative cooperativity of TTR cannot be overcome at feasible drug dosage. ,
Recombinant V122I TTR at 0.5 mg/mL (9 μM) in PBS, pH 7.4 was preincubated (37 °C for 30 min) with an equimolar concentration of ligand (or DMSO alone) before adding trypsin (5 ng/μL). Protein fibrillogenesis was carried out in glass vials stirred at 1400 rpm (IKA magnetic stirrer), 37 °C and spectrophotometric turbidity at 400 nm was used to monitor fibril formation over time until it reached a plateau at 96 h.
Analysis of amyloid material harvested from each sample at the end of the fibrillogenesis was carried out using Thioflavin T (ThT) emission fluorescence and Congo red staining. For these analyses, samples were centrifuged 20 min at 11,600g and pellets were thoroughly rinsed with PBS to remove nonbound ligand, resuspended with 100 μL PBS, pH 7.4, containing 10 μM Thioflavin T (ThT) in Costar 96-well black-wall plates. Bottom fluorescence values (excitation 440 nm, emission 480 nm) were recorded using a BMG LABTECH FLUostar Omega plate reader. Each value was normalized to the ThT signal of the TTR sample without ligand.

[2] = molecular target: T2, wild-type TTR in normal human plasma (Homo sapiens, UniProt P02766); experiment: Displacement of 125I-T4 from TTR in normal human plasma; type: binding; details: for binding to TTR in plasma, in words: normal human plasma
T2 construct: TTR in whole plasma, from individuals homozygous for wild-type TTR; from tissue; host or cells: whole human plasma from individuals homozygous for wild-type TTR

[3] = molecular target: T3, isolated recombinant wild-type TTR (Homo sapiens, UniProt P02766); experiment: Displacement of 125I-T4 from isolated wild-type TTR; type: binding; details: for IC50: ligand concentration reducing binding of 125I-thyroxine by isolated recombinant wild-type TTR by 50%, mean ± SD, read-out: bIC50; for IC50 in buffer (bIC50) compared to mds84, in words: isolated TTR
T3 construct: Native TTR is a noncovalent homotetramer of β-sheet-rich 127-residue protomers; His6 (N); TEV cleavage site (N); made in house; host or cells: E. coli BL21 (DE3)
Description: Competition of ligands with thyroxine for binding by TTR was assayed quantitatively by a previously described procedure.

[4] = residual V122I TTR fibrillar aggregation with equimolar ligand, ThT emission normalized to protein without ligand, mean ± SD
[5] = supplementary CSV, residual V122I TTR aggregation, equimolar ligand
[6] = ligand concentration reducing binding of 125I-thyroxine by wild-type TTR by 50% in normal human plasma, mean ± SD

With `O=C(O)CCc1cc(Cl)c(OCC[C@H](O)[C@@H](O)CCOc2c(Cl)cc(Nc3ccccc3C(=O)O)cc2Cl)c(Cl)c1` [B4, 2-[4-[(3S,4S)-6-[4-(2-Carboxyethyl)-2,6-dichloro-phenoxy]-3,4-dihydroxy-hexoxy]-3,5-dichloro-anilino]-benzoic acid] the “antifibrillogenic activity, in words” value ([1]; equimolar ligand) was “excellent inhibitors of fibrillogenesis”, the “Agg (%)” value [1, 4] was 4.4 ± 3.0% and the “binding to TTR in plasma, in words” value [2] was “increased the potency of binding”.

In the case of `O=C(O)CCc1cc(Cl)c(OCC/C=C/CCOc2c(Cl)cc(Nc3ccccc3C(=O)O)cc2Cl)c(Cl)c1` [B14, 2-[4-[(E)-6-[4-(2-Carboxyethyl)-2,6-dichloro-phenoxy]-hex-3-enoxy]-3,5-dichloro-anilino]-Benzoic Acid], the “antifibrillogenic activity, in words” value ([1]; equimolar ligand) is reported as “Antifibrillogenic activity was reduced”, the “Agg (%)” value [1, 4] is reported as 13 ± 3.2% and the “Agg (%)” value [1, 5] is reported as 13±3.2%. The IC50 [2, 6] was 11000 ± 2900 nM and the IC50 [3] was 80 ± 8 nM.

For `O=C(O)CCOCCCOCCCOCCCOc1c(Cl)cc(Nc2ccccc2C(=O)O)cc1Cl` [B6, 2-[4-[3-[3-[3-(2-Carboxy-ethoxy)-propoxy]-propoxy]-propoxy]-3,5-dichloro-anilino]-Benzoic Acid], the “antifibrillogenic activity, in words” value ([1]; equimolar ligand) was “Antifibrillogenic activity was reduced”, the “Agg (%)” value [1, 4] was 12 ± 4.4% and the “Agg (%)” value [1, 5] was 12±4.4%. For the same compound, the IC50 [2, 6] was 40000 ± 13000 nM, the “binding to TTR in plasma, in words” value [2] was “reduced binding” and the “IC50 in buffer (bIC50) compared to mds84, in words” value (“IC50 … compared to mds84, in words” below) [3] was “higher values of IC50”. The IC50 [3] was 1200 ± 410 nM.

With `O=C(O)CCc1cc(Cl)c(OCCOCCCCOc2c(Cl)cc(Nc3ccccc3C(=O)O)cc2Cl)c(Cl)c1` [B2, 2-[4-[4-[2-[4-(2-Carboxyethyl)-2,6-dichloro-phenoxy]-ethoxy]-butoxy]-3,5-dichloro-anilino]-Benzoic Acid] the “antifibrillogenic activity, in words” value ([1]; equimolar ligand) was “excellent inhibitors of fibrillogenesis”, the “Agg (%)” value [1, 4] was 4.4 ± 1.5% and the “Agg (%)” value [1, 5] was 4.4±1.5%. The IC50 [2, 6] was 2600 ± 590 nM and the “binding to TTR in plasma, in words” value [2] was “increased the potency of binding”.

For `O=C(O)CCc1cc(Cl)c(OCC[C@@H](O)[C@H](O)CCOc2ccc(Nc3ccccc3C(=O)O)cc2Cl)c(Cl)c1` [B20, 2-[4-[(3R,4R)-6-[4-(2-Carboxyethyl)-2,6-dichloro-phenoxy]-3,4-dihydroxy-hexoxy]-3-chloro-anilino]-Benzoic Acid], the “antifibrillogenic activity, in words” value ([1]; equimolar ligand) was “reduced potency”, the “Agg (%)” value [1, 4] was 11 ± 4.1% and the “Agg (%)” value [1, 5] was 11±4.1%. For the same compound, the “binding to TTR in plasma, in words” value [2] was “reduction in the observed potency”.

`O=C(O)CCc1ccc(OCCC(O)C(O)CCOc2c(Cl)cc(Nc3ccccc3C(=O)O)cc2Cl)c(Cl)c1` (stereo not drawn) [B21, 2-[4-[6-[4-(2-Carboxyethyl)-2-chloro-phenoxy]-3,4-dihydroxy-hexoxy]-3,5-dichloro-anilino]-Benzoic Acid] was tested, and the “antifibrillogenic activity, in words” value ([1]; equimolar ligand) was “reduced potency”, the “Agg (%)” value [1, 4] was 15 ± 2.8% and the “Agg (%)” value [1, 5] was 15±2.8%. For the same compound, the IC50 [2, 6] was 4100 ± 2100 nM, the “binding to TTR in plasma, in words” value [2] was “reduction in the observed potency” and the IC50 [3] was 70 ± 4 nM.

For `O=C(O)CCc1cc(Cl)c(OCCCOCCOc2c(Cl)cc(Nc3cnncc3C(=O)O)cc2Cl)c(Cl)c1` [B24, 5-[4-[2-[3-[4-(2-Carboxyethyl)-2,6-dichloro-phenoxy]-propoxy]-ethoxy]-3,5-dichloro-anilino]-Pyridazine-4-Carboxylic acid], the “Agg (%)” value [1, 4] was 13 ± 8.2%, the “Agg (%)” value [1, 5] was 13±8.2% and the IC50 [2, 6] was 7900 ± 1400 nM. For the same compound, the “binding to TTR in plasma, in words” value [2] was “slight reduction of binding potency” and the IC50 [3] was 100 ± 5 nM.

In the case of `O=C(O)CCc1cc(Cl)c(OCCCOCCOc2c(Cl)cc(Nc3ccncc3C(=O)O)cc2Cl)c(Cl)c1` [B27, 4-[4-[2-[3-[4-(2-Carboxyethyl)-2,6-dichloro-phenoxy]-propoxy]-ethoxy]-3,5-Dichloro-anilino]-Pyridine-3-Carboxylic Acid], the “Agg (%)” value [1, 4] is reported as 12 ± 1.1%, the “Agg (%)” value [1, 5] is reported as 12±1.1% and the “binding to TTR in plasma, in words” value [2] is reported as “preservation of the properties”.

In the case of `O=C(O)CCc1cc(Cl)c(OCC[C@@H](O)[C@H](O)CCOc2c(Cl)cc(Nc3ccccc3C(=O)O)cc2Cl)c(Cl)c1` [B4A, 2-[4-[(3R,4R)-6-[4-(2-carboxyethyl)-2,6-dichloro-phenoxy]-3,4-dihydroxy-hexoxy]-3,5-dichloro-anilino]-Benzoic Acid], the “antifibrillogenic activity, in words” value ([1]; equimolar ligand) is reported as “excellent inhibitors of fibrillogenesis”, the “Agg (%)” value [1, 4] is reported as 3.3 ± 1.2% and the “Agg (%)” value [1, 5] is reported as 4.4±3.0%. For the same compound, the “binding to TTR in plasma, in words” value [2] was “increased the potency of binding”, the IC50 ([2]; supplementary CSV, TTR in normal human plasma) was 4400 ± 1200 nM and the IC50 [3] was 70 ± 9 nM.

In the case of `O=C(O)CCc1cc(Cl)c(OCOCCCOc2c(Cl)cc(Nc3ccccc3C(=O)O)cc2Cl)c(Cl)c1` [B8, 2-[4-[3-[[4-(2-Carboxyethyl)-2,6-dichloro-phenoxy]-methoxy]-propoxy]-3,5-dichloro-anilino]-Benzoic Acid], the “antifibrillogenic activity, in words” value ([1]; equimolar ligand) is reported as “Antifibrillogenic activity was reduced”, the “Agg (%)” value [1, 4] is reported as 12 ± 3.7% and the “Agg (%)” value [1, 5] is reported as 12±3.7%. The IC50 [2, 6] was over 150000 nM, the “binding to TTR in plasma, in words” value [2] was “reduced binding” and the “IC50 … compared to mds84, in words” value [3] was “higher values of IC50”. It also gave an IC50 [3] of 2100 ± 210 nM.

With `O=C(O)CCc1cc(Cl)c(OCCCOCCOc2c(Cl)cc(Nc3ccnnc3C(=O)O)cc2Cl)c(Cl)c1` [B25, 4-[4-[2-[3-[4-(2-Carboxyethyl)-2,6-dichloro-phenoxy]-propoxy]-ethoxy]-3,5-dichloro-anilino]-Pyridazine-3-Carboxylic acid] the “Agg (%)” value [1, 4] was 11 ± 4.8%, the “Agg (%)” value [1, 5] was 11±4.8% and the IC50 [2, 6] was 3300 ± 1800 nM. The “binding to TTR in plasma, in words” value [2] was “preservation of the properties”.

In the case of `O=C(O)COCCOCCOCCOc1c(Cl)cc(Nc2ccccc2C(=O)O)cc1Cl` [B5, 2-[4-[2-[2-[2-(Carboxymethoxy)-ethoxy]-ethoxy]-ethoxy]-3,5-dichloro-anilino]-Benzoic Acid], the “antifibrillogenic activity, in words” value ([1]; equimolar ligand) is reported as “Antifibrillogenic activity was reduced”, the “Agg (%)” value [1, 4] is reported as 28.8 ± 13.4% and the “Agg (%)” value [1, 5] is reported as 28.8±13.4%. For the same compound, the “binding to TTR in plasma, in words” value [2] was “reduced binding”, the “IC50 … compared to mds84, in words” value [3] was “higher values of IC50” and the IC50 [3] was 5000 ± 400 nM.

`Cc1n[nH]c(C)c1CCCOc1cc(C(=O)O)ccc1F` [AG10, acoramidis, reference compound] was tested, and the “inhibition of V122I TTR amyloid formation at equimolar ligand/protein, in words” value ([1]; 9 μM V122I TTR, equimolar concentration, bivalent vs monovalent ligands) was “significantly lower inhibitory effect”.

For `O=C(O)CCc1ccc(OCC[C@@H](O)[C@H](O)CCOc2ccc(Nc3ccccc3C(=O)O)cc2Cl)c(Cl)c1` [B22, 2-[4-[(3R,4R)-6-[4-(2-Carboxyethyl)-2-chloro-phenoxy]-3,4-dihydroxy-hexoxy]-3-chloro-anilino]Benzoic Acid], the “antifibrillogenic activity, in words” value ([1]; equimolar ligand) was “reduced potency”, the “Agg (%)” value [1, 4] was 15 ± 2.8% and the “Agg (%)” value [1, 5] was 15±2.8%. For the same compound, the “binding to TTR in plasma, in words” value [2] was “reduction in the observed potency”.

With `O=C(O)CCc1cc(Cl)c(OCCCOCCOc2c(Cl)cc(Nc3ccccc3C(=O)O)cc2Cl)c(Cl)c1` [B1, 2-[4-[2-[3-[4-(2-Carboxyethyl)-2,6-dichloro-phenoxy]-propoxy]-ethoxy]-3,5-dichloro-anilino]-Benzoic Acid] the “antifibrillogenic activity, in words” value ([1]; equimolar ligand) was “excellent inhibitors of fibrillogenesis”, the “Agg (%)” value [1, 4] was 5.2 ± 3.6% and the “Agg (%)” value [1, 5] was 5.2±3.6%. The IC50 [2, 6] was 1100 ± 110 nM, the “binding to TTR in plasma, in words” value [2] was “increased the potency of binding” and the IC50 [3] was 100 ± 30 nM.
